Assay results published in patent US8691864B2, “Agents useful for reducing amyloid precursor protein and treating dementia and methods of use thereof” (priority 2000, dated 2014).

Columns and labels:
secreted APP = assay: ELISA for secreted APP in SHSY5Y cells; type: cell-based, human; settings: 16 hours
Method: (§1) An enzyme-linked immunosorbent assay was developed to detect secreted APP in SHSY5Y cells, a human neuroblastoma cell line. The purpose of the screen was to discover small molecules that inhibit APP protein synthesis in SHSY5Y cells. SHSY5Y cells were plated at 1×10^5 cells/well in […] of DMEM containing 0.5% heat inactivated FBS in 96 well tissue culture treated plates (Falcon no. 35 3072). 144 MES compounds were tested at final concentrations of […] in 0.1% DMSO. Compounds were added and the plates incubated for 16 hours at 37° C./5% CO2. Maxisorp plates (Nunc no. 437958) were coated overnight with […] capture antibody (Biosource 44-100) diluted in Ca^++ and Mg^++ free PBS. Biosource 44-100 is a mouse mAb that recognizes aa 1-100 of human APP. Plates were blocked for 30 minutes with 1 mg/mL BSA in Ca^++ and Mg^++ free PBS. Plates were washed 3× with wash buffer (Ca^++ and Mg^++ free PBS+0.01% Tween20). […] of supernatants and non-cultured medium controls were transferred from culture plates to ELISA plates. Culture plates were reserved for toxicity analysis. Supernatants were incubated for 4 hours at RT on a plate shaker. After supernatant incubation, plates were washed 3×. Primary antibody (Signet Clone 6E-10 biotin) was added at 0.3125 mg/mL and incubated overnight at 4° C. The recognition site of 6E-10 is aa 1-17 of Ab. For detection, a 1:3000 dilution of horseradish peroxidase conjugated streptavidin (Endogen no. N-100) was incubated for 30 minutes. Plates were washed 3×. Enzyme activity was assessed by incubation with […] TMB substrate solution (Moss no. TMB-US) for 20 minutes. The reaction was stopped by the addition of […] 0.18M sulfuric acid. Optical density was read at 450 nm on Wallac Victor2 plate reader. During the first incubation, toxicity was determined using MTS assay, Cell Titer96 AQ reagent (Promega no. G5430). The background values from the non-cultured medium control were subtracted from the sample values and secreted APP levels and toxicity were expressed as % vehicle control. Of the 144 MES compounds screened, 12 inhibited secreted APP as determined by ELISA. The results are depicted in FIGS. 13A-M.
(§2) Using the experimental procedure outlined above, APP secretion and toxicity studies were performed on several other non-carbamate compounds, and the results are shown in Tables 3 and 4. The compound structures are provided in Table 2 in the application, which are identified by their MES number.

SH-SY-5Y Cells = assay: MTS toxicity assay in SHSY5Y cells; type: cell-based, human
Method: as §1, §2

Row | Structure (SMILES) | APP Secretion by SH-SY-5Y Cells (secreted APP; Dose 2 uM) [% vehicle control] | APP Secretion by SH-SY-5Y Cells (secreted APP; Dose 6 uM) [% vehicle control] | APP Secretion by SH-SY-5Y Cells (secreted APP; Dose 20 uM) [% vehicle control] | APP Toxicity SH-SY-5Y Cells (MTS assay) (SH-SY-5Y Cells; Dose 2 uM) [% vehicle control] | APP Toxicity SH-SY-5Y Cells (MTS assay) (SH-SY-5Y Cells; Dose 6 uM) [% vehicle control] | APP Toxicity SH-SY-5Y Cells (MTS assay) (SH-SY-5Y Cells; Dose 20 uM) [% vehicle control] | APP Secretion by SH-SY-5Y Cells (secreted APP; Dose 2 uM, listed as 9231) [% vehicle control] | APP Secretion by SH-SY-5Y Cells (secreted APP; Dose 6 uM, listed as 9231) [% vehicle control] | APP Secretion by SH-SY-5Y Cells (secreted APP; Dose 20 uM, listed as 9231) [% vehicle control] | APP Toxicity SH-SY-5Y Cells (MTS assay) (SH-SY-5Y Cells; Dose 2 uM, listed as 9231) [% vehicle control] | APP Toxicity SH-SY-5Y Cells (MTS assay) (SH-SY-5Y Cells; Dose 6 uM, listed as 9231) [% vehicle control] | APP Toxicity SH-SY-5Y Cells (MTS assay) (SH-SY-5Y Cells; Dose 20 uM, listed as 9231) [% vehicle control] | APP Secretion by SH-SY-5Y Cells (secreted APP; Dose 0.08 uM) [% vehicle control] | APP Secretion by SH-SY-5Y Cells (secreted APP; Dose 0.25 uM) [% vehicle control] | APP Secretion by SH-SY-5Y Cells (secreted APP; Dose 0.74 uM) [% vehicle control] | APP Toxicity SH-SY-5Y Cells (MTS assay) (SH-SY-5Y Cells; Dose 0.08 uM) [% vehicle control] | APP Toxicity SH-SY-5Y Cells (MTS assay) (SH-SY-5Y Cells; Dose 0.25 uM) [% vehicle control] | APP Toxicity SH-SY-5Y Cells (MTS assay) (SH-SY-5Y Cells; Dose 0.74 uM) [% vehicle control]
1 | COc1ccc2c(c1)[C@@]1(C)CCN(C)C1N2C (stereo partly drawn) [MES 9229] | 111.6 | 111.4 | 125.1 | 99.97 | 96.07 | 91.47 | – | – | – | – | – | – | – | – | – | – | – | –
2 | CN1CC[C@]2(C)c3cc(O)ccc3N(C)C12 (stereo partly drawn) [MES 9230] | 101.25 | 88.8 | 4.4 | 100.8 | 86.13 | 13.83 | – | – | – | – | – | – | – | – | – | – | – | –
3 | COc1ccc2c(c1)[C@]1(C)CCN(Cc3ccccc3)C1N2C (stereo partly drawn) [MES 9231] | – | – | – | – | – | – | 104.9 | 133.5 | 154.2 | 95.7 | 90.73 | 85.87 | – | – | – | – | – | –
4 | COc1ccc2c(c1)[C@@]1(C)CC[N+](C)(C)C1N2Cc1ccccc1.[I-] (stereo partly drawn) [MES 9234] | 106.4 | 96.5 | 98.8 | 102.55 | 99.75 | 99.3 | – | – | – | – | – | – | – | – | – | – | – | –
5 | COc1ccc2c(c1)[C@@](C)(CC[N+](C)(C)C)C(O)N2Cc1ccccc1.[I-] (stereo partly drawn) [MES 9236] | 105.8 | 103.2 | 101.65 | 97.6 | 101 | 100.05 | – | – | – | – | – | – | – | – | – | – | – | –
6 | COc1ccc2c(c1)[C@@]1(C)CCN(Cc3ccccc3)C1N2Cc1ccccc1 (stereo partly drawn) [MES 9237] | 149.95 | 158.1 | 173.3 | 96.55 | 98.35 | 99.4 | – | – | – | – | – | – | – | – | – | – | – | –
7 | C[C@]12CCN(Cc3ccccc3)C1N(Cc1ccccc1)c1ccc(O)cc12 (stereo partly drawn) [MES 9238] | 48.57 | 39.23 | 23.57 | 41.8 | 40.47 | 31.63 | – | – | – | – | – | – | 117.6 | 107.7 | 109.7 | 101.8 | 103.8 | 106.4
8 | COc1ccc2c(c1)[C@]1(C)CCN(C)C1N2Cc1ccccc1 (stereo partly drawn) [MES 9242] | 116.75 | 116.3 | 116.1 | 94.2 | 89.8 | 80.95 | – | – | – | – | – | – | – | – | – | – | – | –
9 | COc1ccc2c(c1)[C@]1(C)CCNC1N2 (stereo partly drawn) [MES 9243] | 88.95 | 95.25 | 100.55 | 99.1 | 98.4 | 99 | – | – | – | – | – | – | – | – | – | – | – | –
10 | C=CCO[C@H](c1ccnc2ccccc12)C1CC2CC[N+]1(Cc1c3ccccc3cc3ccccc13)CC2C=C.[Br-] (stereo partly drawn) [MES 9257] | 111.2 | 98.9 | 99.03 | 100.5 | 98.77 | 100 | – | – | – | – | – | – | – | – | – | – | – | –
11 | CN(C)Cc1cc2c(cc1O)[C@]1(C)CCN(C)C1N2C (stereo partly drawn) [MES 9266] | 94.4 | 95.2 | 94.85 | 96.55 | 97.75 | 94.15 | – | – | – | – | – | – | – | – | – | – | – | –
12 | Cc1cc2c(cc1O)[C@]1(C)CCN(C)C1N2C (stereo partly drawn) [MES 9267] | 93.68 | 68.64 | 22.22 | 97.98 | 96.72 | 15.52 | – | – | – | – | – | – | 97.8 | 97.43 | 97.43 | 101.5 | 102 | 101.9
13 | C/N=C(\C)c1cccc(OC)c1 [MES 9270] | 95.8 | 95.9 | 98.15 | 99.4 | 101.1 | 100.4 | – | – | – | – | – | – | – | – | – | – | – | –
